In ChEMBL document CHEMBL1135448, “Synthesis and SAR of N-substituted dibenzazepinone derivatives as novel potent and selective alpha(V)beta(3) antagonists” (Bioorg Med Chem Lett, 2002):
pIC50: −log10 of the molar value. Where “and” joins values, the source holds several entries; their conditions need not be identical. Equal values may be shown once. Calls of active or inactive are those of the source. The calls are words filed in the database; no cut-off is given here.

Experiments:
[1] = species on record: Homo sapiens; experiment: Evaluated for primary human smooth muscle cell migration; assay type: functional
[2] = molecular target: Integrin alpha-5/beta-1 (Homo sapiens) (UniProt P05556+P08648); experiment: Cell adhesion via alpha5-beta1 integrin to fibronectin at 10e-5 M (Not active); assay type: protein-complex assay
[3] = molecular target: T1, Integrin alpha-V/beta-3 (Homo sapiens, UniProt P05106+P06756); experiment: Adhesion of recombinant alphaV-beta3 integrin expressed in CHO-K1 to osteopontin (OPN); assay type: cell-based
[4] = molecular target: Integrin alpha-4/beta-1 (Homo sapiens) (UniProt P05556+P13612); experiment: Cell adhesion of alpha4-beta1 integrin to fibronectin at 10e-5 M (Not active); assay type: protein-complex assay
[5] = molecular target: T1, Integrin alpha-V/beta-3; experiment: Affinity against alpha V-beta3 integrin via competitive ELISA using vitronectin as natural ligand; assay type: protein-complex assay
[6] = molecular target: Integrin alpha-IIb/beta-3 (Homo sapiens, UniProt P05106+P08514); experiment: Displacement of alphaIIb-beta3 integrin from fibrinogen by ELISA; assay type: protein-complex assay
[7] = tested on: Caco-2; experiment: Apparent permeability constant (Papp) was evaluated for Caco-2 model permeation; assay type: functional, cell-based; conditions: Homo sapiens
[8] = molecular target: T1, Integrin alpha-V/beta-3; experiment: Displacement of vitronectin from alphaV-beta3 integrin in ELISA (Not active); assay type: protein-complex assay
[9] = molecular target: T1, Integrin alpha-V/beta-3; experiment: Cell adhesion of alphaV-beta3 integrin expressed in CHO-K1 cell to osteopontin (OPN); assay type: cell-based

SMILES | pIC50 [5] | other results
O=C(O)CC1c2ccccc2C(=O)N(CCOCc2ccc(NC(=O)NCc3ccccc3)cc2)c2ccccc21 (centres undefined) |  | IC50 [8]: Not Active
O=C(O)CC1c2ccccc2C(=O)N(CC(=O)NCc2nc(-c3nc4ccccc4[nH]3)cs2)c2ccccc21 (centres undefined) | 6.00 | 
O=C(O)CC1c2ccccc2C(=O)N(CC(=O)NCc2cc(CNc3ccccn3)cs2)c2ccccc21 (centres undefined) | 6.66 | 
O=C(O)CC1c2ccccc2C(=O)N(CC(=O)NCCCCCNc2nc3ccccc3[nH]2)c2ccccc21 (centres undefined) | 7.89 | 
O=C(O)CC1c2ccccc2C(=O)N(CC(=O)NCc2ccc(-c3nc4ccccc4[nH]3)s2)c2ccccc21 (centres undefined) | 6.30 | 
O=C(O)CC1c2ccccc2C(=O)N(CCNCc2ccc(NC(=O)NCc3ccccc3)cc2)c2ccccc21 (centres undefined) |  | IC50 [8]: Not Active
O=C(O)CC1c2ccccc2C(=O)N(CC(=O)NCc2cccc(-c3nc4ccccc4[nH]3)c2)c2ccccc21 (centres undefined) | 5.00 | 
N=C(N)c1csc(CNC(=O)CN2C(=O)c3ccccc3C(CC(=O)O)c3ccccc32)c1 (centres undefined) | 6.00 | 
O=C(O)CC1c2ccccc2C(=O)N(CC(=O)NCc2ccc(-c3nc4cc(Cl)ccc4[nH]3)cc2)c2ccccc21 (centres undefined) | 6.21 | 
O=C(O)CC1c2ccccc2C(=O)N(CCCCc2ccc(NC(=O)NCc3ccccc3)cc2)c2ccccc21 (centres undefined) | 5.00 | 
O=C(O)CC1c2ccccc2C(=O)N(CC(=O)Nc2ccc(-c3nc4ccccc4[nH]3)cc2)c2ccccc21 (centres undefined) | 5.30 | 
O=C(O)CC1c2ccccc2C(=O)N(CC(=O)NCc2ccc(NC(=O)CCc3ccccc3)cc2)c2ccccc21 (centres undefined) |  | IC50 [8]: Not Active
O=C(O)CC1c2ccccc2C(=O)N(CC(=O)NCc2ccc(-c3nc4ccccc4[nH]3)cc2)c2ccccc21 (centres undefined) | 7.13 | 
O=C(O)CC1c2ccccc2C(=O)N(CC(=O)NCc2ccc(-c3nc4ccccc4[nH]3)nc2)c2ccccc21 (centres undefined) | 6.70 | 

Continued, in another order:

pIC50 [5] | SMILES | other results
8.80 | O=C(O)CC1c2ccccc2C(=O)N(CC(=O)NC[C@H]2CC[C@H](Nc3nc4ccccc4[nH]3)CC2)c2ccccc21 (some centres undefined) | Inhibition [1]: 100%; inhibition [2]: inactive; pIC50 [3]: 7.40; inhibition [4]: inactive; pIC50 [6]: < 4.00; Papp [7]: 2.7 ×10⁻⁶ cm/s
5.00 | O=C(O)CC1c2ccccc2C(=O)N(CC(=O)NCc2ccc(NC(=O)OCc3ccccc3)cc2)c2ccccc21 (centres undefined) | 
6.30 | O=C(O)CC1c2ccccc2C(=O)N(CC(=O)NCc2cc(-c3nc4ncccc4[nH]3)cs2)c2ccccc21 (centres undefined) | 
5.30 | O=C(O)CC1c2ccccc2C(=O)N(CC(=O)NCc2ccc(Nc3ccccn3)cc2)c2ccccc21 (centres undefined) | 
6.42 | O=C(O)CC1c2ccccc2C(=O)N(CC(=O)NCCc2ccc(-c3nc4ccccc4[nH]3)cc2)c2ccccc21 (centres undefined) | 
5.00 | O=C(O)CC1c2ccccc2C(=O)N(CC(=O)NCc2ccc(OC(=O)NCc3ccccc3)cc2)c2ccccc21 (centres undefined) | 
7.83 | O=C(O)CC1c2ccccc2C(=O)N(CC(=O)NCCCCNc2nc3ccccc3[nH]2)c2ccccc21 (centres undefined) | 
6.00 | O=C(O)CC1c2ccccc2C(=O)N(CC(=O)NCc2nc3ccccc3[nH]2)c2ccccc21 (centres undefined) | 
7.08 | NC(N)=Nc1ccc(CNC(=O)CN2C(=O)c3ccccc3C(CC(=O)O)c3ccccc32)cc1 (centres undefined) | 
7.64 | O=C(O)CC1c2ccccc2C(=O)N(CC(=O)NCc2ccc(NC(=O)NCc3ccccc3)cc2)c2ccccc21 (centres undefined) | 
6.66 | Cc1cc2nc(-c3ccc(CNC(=O)CN4C(=O)c5ccccc5C(CC(=O)O)c5ccccc54)cc3)[nH]c2cc1C (centres undefined) | 
8.15 and 8.14 | O=C(O)CC1c2ccccc2C(=O)N(CC(=O)NCc2ccc(Nc3nc4ccccc4[nH]3)cc2)c2ccccc21 (centres undefined) | Inhibition [1]: 67%; inhibition [2]: inactive; pIC50 [9]: 7.00; inhibition [4]: inactive; pIC50 [6]: < 4.00
7.00 | O=C(O)CC1c2ccccc2C(=O)N(CC(=O)NCc2cc(-c3nc4ccccc4[nH]3)cs2)c2ccccc21 (centres undefined) | 
6.00 | O=C(O)CC1c2ccccc2C(=O)N(CC(=O)NCCCNc2ccccn2)c2ccccc21 (centres undefined) | 
